Data taken from ChEMBL document CHEMBL4190272, “Norditerpenoids and Dinorditerpenoids from the Seeds of Podocarpus nagi as Cytotoxic Agents and Autophagy Inducers” (J Nat Prod, 2017).
The source made the active and inactive calls. The calls are words filed in the database; no cut-off is given here.

Tests used:
A2780 [1] = experiment: Cytotoxicity against human A2780 cells up to 10 uM after 48 hrs by MTT assay; assay type: functional, cell-based
HEY [2] = experiment: Cytotoxicity against human HEY cells up to 10 uM after 48 hrs by MTT assay; assay type: functional, cell-based
A2780 [3] = experiment: Induction of autophagy in human A2780 cells assessed as increase in LC3-2 expression by Western blot analysis; assay type: functional, cell-based
A2780 [4] = conditions: Homo sapiens
Description: (§1) Cytotoxicity against human A2780 cells after 48 hrs by MTT assay

HEY [5] = experiment: Cytotoxicity against human HEY cells after 48 hrs by MTT assay; assay type: functional, cell-based
HEY [6] = experiment: Induction of autophagy in human HEY cells assessed as increase in LC3-2 expression by Western blot analysis; assay type: functional, cell-based
A2780 [7] = experiment: cells; conditions: Homo sapiens, A2780, 48 h
Description: as §1

[8] = target: T1, c-Jun N-terminal kinase, JNK (Homo sapiens) (UniProt P45983+P53779+P45984); experiment: Activation of JNK in human A2780 cells assessed as increase in c-jun expression up to 10 uM after 24 hrs by Western blot analysis; assay type: cell-based
A2780 [9] = experiment: Induction of autophagy in human A2780 cells assessed as increase in LC3-2 expression up to 10 uM after 24 hrs by Western blot analysis; assay type: functional, cell-based
[10] = target: T1, c-Jun N-terminal kinase, JNK (Homo sapiens); experiment: Activation of JNK in human A2780 cells assessed as increase in phosphorylated c-jun expression up to 10 uM after 24 hrs in presence of JNK/c-Jun pathway inhibitor SP600125 by Western blot analysis; assay type: cell-based
[11] = target: T1, c-Jun N-terminal kinase, JNK (Homo sapiens); experiment: Activation of JNK phosphorylation in human A2780 cells up to 10 uM after 24 hrs in presence of JNK/c-Jun pathway inhibitor SP600125 by Western blot analysis; assay type: cell-based
A2780 [12] = experiment: Induction of autophagy in human A2780 cells assessed as increase in LC3-2 expression in presence of JNK/c-Jun pathway inhibitor SP600125 by Western blot analysis; assay type: functional, cell-based
[13] = target: T1, c-Jun N-terminal kinase, JNK (Homo sapiens); experiment: Activation of JNK in human A2780 cells assessed as increase in phosphorylated c-jun expression up to 10 uM after 24 hrs by Western blot analysis; assay type: cell-based
A2780 [14] = experiment: Induction of autophagy in human A2780 cells expressing mRFP-GFP-LC3 plasmid assessed as increase in LC3 punctum formation at 10 uM after 24 hrs by confocal microscopic analysis; assay type: functional, cell-based
[15] = target: T1, c-Jun N-terminal kinase, JNK (Homo sapiens); experiment: Activation of JNK phosphorylation in human A2780 cells up to 10 uM after 24 hrs by Western blot analysis; assay type: cell-based
HEY [16] = experiment: Induction of autophagy in human HEY cells assessed as increase in LC3-2 expression up to 10 uM after 24 hrs by Western blot analysis; assay type: functional, cell-based

| SMILES | Activity (A2780 [1]) | Activity (HEY [2]) | Activity (A2780 [4]) | Activity (HEY [5]) | other results |
| --- | --- | --- | --- | --- | --- |
| CCc1oc(=O)cc2c1C[C@H]1OC(=O)[C@@]3(C)[C@@H](O)C[C@@H](O)[C@@]2(C)[C@@H]13 | inactive | inactive |  |  |  |
| CCc1oc(=O)cc2c1C[C@H]1OC(=O)[C@@]3(C)[C@H](O)[C@H]4O[C@H]4[C@@]2(C)[C@@H]13 |  |  | Active | Active | Activity (A2780 [3]): Active; Activity (HEY [6]): Active |
| CC(O)c1oc(=O)cc2c1C[C@H]1OC(=O)[C@@]3(C)[C@@H](O)[C@@H](O)[C@H](Cl)[C@@]2(C)[C@@H]13 (some centres not stated) | inactive | inactive |  |  |  |
| CCc1oc(=O)cc2c1C[C@H]1OC(=O)[C@@]3(C)CC[C@@H](O)[C@@]2(C)[C@@H]13 |  |  |  |  | IC50 (HEY [5]): 6400 nM; IC50 (A2780 [7]): 3800 nM |
| CC(=O)O[C@H]1C(=O)[C@@]2(C)[C@H]([C@H](OC(=O)c3ccccc3)[C@]3(O)C[C@H](OC(=O)[C@H](O)[C@@H](NC(=O)c4ccccc4)c4ccccc4)C(C)=C1C3(C)C)[C@]1(OC(C)=O)CO[C@@H]1C[C@@H]2O [PACLITAXEL] |  |  |  |  | IC50 (HEY [5]): 104 nM; IC50 (A2780 [7]): 164 nM |
| CCc1oc(=O)cc2c1[C@@H](O)[C@H]1OC(=O)[C@@]3(C)[C@@H](O)[C@H]4O[C@H]4[C@@]2(C)[C@@H]13 | inactive | inactive |  |  |  |
| CCc1oc(=O)cc2c1C[C@H]1OC(=O)[C@@]3(C)C[C@@H](O)[C@@H](O)[C@@]2(C)[C@@H]13 |  |  |  |  | Activity (A2780 [3]): Active; Activity [8]: Active; Activity (A2780 [9]): Active; Activity [10]: inactive; Activity [11]: inactive; Activity (A2780 [12]): inactive; Activity [13]: Active; Activity (A2780 [14]): Active; Activity [15]: Active; IC50 (HEY [5]): < 2500 nM; Activity (HEY [6]): Active; Activity (HEY [16]): Active; IC50 (A2780 [7]): < 2500 nM |
| CC(C)[C@H]1OC(=O)C=C2[C@@]13O[C@@H]3[C@H]1OC(=O)[C@@]3(C)CCC[C@@]2(C)[C@@H]13 |  |  | Active | Active |  |
| CC(C)c1oc(=O)cc2c1[C@@H](O)[C@H]1OC(=O)[C@@]3(C)[C@@H](O)[C@H]4O[C@H]4[C@@]2(C)[C@@H]13 |  |  | Active | Active |  |
| CC(O)c1oc(=O)cc2c1C[C@H]1OC(=O)[C@@]3(C)CC[C@@H](O)[C@@]2(C)[C@@H]13 (some centres not stated) | inactive | inactive |  |  |  |
| CC(C)c1oc(=O)cc2c1[C@@H](O)[C@H]1OC(=O)[C@@]3(C)CC(=O)[C@@H](O)[C@@]2(C)[C@@H]13 | inactive | inactive |  |  |  |
| CC(C)c1oc(=O)cc2c1[C@@H](O)[C@H]1OC(=O)[C@@]3(C)CC[C@@H](O)[C@@]2(C)[C@@H]13 |  |  | Active | Active |  |
| CC(C)c1oc(=O)cc2c1[C@@H](O)[C@H]1OC(=O)[C@@]3(C)C[C@@H](O)C[C@@]2(C)[C@@H]13 |  |  | Active | Active |  |
| CCc1oc(=O)cc2c1C[C@H]1OC(=O)[C@@]3(C)[C@@H](O)[C@@H](O)[C@H](O)[C@@]2(C)[C@@H]13 | inactive | inactive |  |  |  |
| CC(O)c1oc(=O)cc2c1C[C@H]1OC(=O)[C@@]3(C)[C@H](O)[C@H]4O[C@H]4[C@@]2(C)[C@@H]13 (some centres not stated) | inactive | inactive |  |  |  |
| CCc1oc(=O)cc2c1C[C@H]1OC(=O)[C@@]3(C)[C@@H](O)[C@H]4O[C@H]4[C@@]2(C)[C@@H]13 |  |  | Active | Active |  |
| CC(C)c1oc(=O)cc2c1[C@@H](O)[C@H]1OC(=O)[C@@]3(C)C[C@@H](O)[C@@H](O)[C@@]2(C)[C@@H]13 |  |  | Active | Active |  |
